These results are taken from article PMC8583042, “New Hybrid Compounds Combining Fragments of Usnic Acid and Thioether Are Inhibitors of Human Enzymes TDP1, TDP2 and PARP1” (International Journal of Molecular Sciences, 2021).

A word on the CC50: it is the concentration giving 50% cytotoxicity. High values mean better tolerance by the cells, low ones harm at low concentration.

Series [1] is described as follows: EZ4U colorimetric cytotoxicity test, HeLa. It is filed as cell-based, human. Conditions: human, HeLa cells; intrinsic cytotoxicity, compound alone, 3 days. An excerpt: The low intrinsic cytotoxicity of the additional drug component in the clinically used anticancer cocktails with traditional drugs is very important for treatment. This approach in chemotherapy can reduce the potential resulting toxic load on the body in the case of a combined action of these inhibitors on the activity of several targets. […] The effects of the tested compounds on cell survival are shown on Figure 4 and the CC50 values for three cell lines are shown in Table 1. The intrinsic cytotoxicity of a number of the studied compounds is quite high, namely, they have close IC50 values against the TDP1 and CC50 values on one or several studied cell lines. Most of the compounds generally were more toxic for the HEK293FT and HeLa cell lines than for the HEK293A cell line (Table 1 and Figure 4). The cytotoxicity of the three leader compounds, 7g, 10a, and 7h, was quite high. […] Compound 10b was one of the least toxic among the ten tested compounds.
Cytotoxicity of the compounds was examined against human cell lines HEK293A (human embryonic kidney)—WT, TDP1 deficient (Tdp1-/-), PARP1 deficient (PARP1-/-), and HeLa (cervical cancer) using an EZ4U colorimetric test (Biomedica, Vienna, Austria). The HEK293A cell line was obtained from Thermo Fisher Scientific (Waltham, MA, USA), and the HeLa cell line was obtained from the Russian Cell Culture Collection (RCCC) Institute of Cytology RAS, St. Petersburg, Russia. The cells were grown in DMEM/F12 medium (Gibco, Thermo Fisher Scientific, Waltham, MA, USA), with 1x GlutaMAX (Gibco, Thermo Fisher Scientific, Waltham, MA, USA), 50 IU/mL penicillin, 50 μg/mL streptomycin (MP Biomedicals), and in the presence of 10% fetal bovine serum (Biolot, Saint-Petersburg, Russia) in a 5% CO2 atmosphere. Cells were grown in the presence of 1% DMSO in the control wells. After the formation of a 30–50% monolayer, the tested compounds were added to the medium, and the cell culture was monitored for 3 days. The values were normalized to their own control in each case. At least three independent experiments were carried out. The 50% cytotoxic concentration (CC50) was defined as the compound concentration that reduced the cell viability by 50% when compared to the untreated controls. The compound concentration that caused 50% cell growth inhibition was determined using OriginPro 8.6.0 software (OriginLab, Northampton, MA, USA). The measurements were carried out in three independent experiments.

The target of another series is T1, TDP2 (Homo sapiens, UniProt O95551).
T1 construct: His-tag (N); made in house; host or cells: E. coli BL21 (DE3)
T1 sequence (O95551 1-362): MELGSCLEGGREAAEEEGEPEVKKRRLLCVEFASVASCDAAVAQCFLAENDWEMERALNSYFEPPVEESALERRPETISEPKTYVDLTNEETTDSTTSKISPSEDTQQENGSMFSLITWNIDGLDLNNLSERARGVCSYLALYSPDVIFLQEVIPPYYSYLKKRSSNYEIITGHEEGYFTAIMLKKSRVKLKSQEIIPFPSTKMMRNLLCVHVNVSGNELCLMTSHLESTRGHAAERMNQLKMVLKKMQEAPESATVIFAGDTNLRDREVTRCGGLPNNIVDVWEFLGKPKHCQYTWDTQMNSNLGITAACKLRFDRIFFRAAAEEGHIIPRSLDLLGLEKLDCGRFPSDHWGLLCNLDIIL
In words: Gel-based TDP2 activity assay. It is filed as biochemical. As to the method:
To study the ability of the investigated compounds to inhibit TDP2 activity, we separated the TDP2 reaction products under denaturing conditions in polyacrylamide gel (PAGE). We tested the ability of TDP2 to eliminate tyrosine residues from the 5’ end of the oligonucleotide substrate in the absence and presence of TDP1 inhibitors. […] The residual TDP2 activity for the best four TDP1 inhibitors, 7g,h and 10a,b, was from 30 to 60%, depending on the tested compound, at a 1 mM concentration of the inhibitor. We tested the ability of compounds 7g,h and 10a,b to inhibit TDP2 activity at 0.2 mM and 0.5 mM concentrations (Figure S26).
The recombinant N-terminally His-tagged TDP2 was expressed in E. coli BL21 (DE3) cells. The plasmid pLATE-31-TDP2 expression vector was constructed as follows. cDNA encoding the TDP2 protein was cloned in the pLATE-31 expression vector using a LICator LIC Cloning and Expression System (Thermo Scientific, Waltham, MA, USA). […]
Oligonucleotide 5′- tyrosine -AAC GTC AGG GTC TTC C- FAM -3′ was synthesized as described above and used for the indication of TDP2 enzyme activity in polyacrylamide gel. […] A Typhoon FLA 9500 phosphorimager (GE Healthcare, Boston, MA, USA) was used for gel scanning and imaging, and the data were analyzed with QuantityOne 4.6.7 software (Bio-Rad Laboratories, Inc., Hercules, CA, USA).

In series [1], `CC(=O)C1=C(O)C=C2Oc3c(C(=O)C[S+]([O-])c4nc5ccccc5s4)c(O)c(C)c(O)c3[C@@]2(C)C1=O` (stereo partly drawn) [10a, (2R)-4-acetyl-10-[2-(1,3-benzothiazole-2-sulfinyl)acetyl]-5,11,13-trihydroxy-2,12-dimethyl-8-oxatricyclo[7.4.0.0^2,7]trideca-1(13),4,6,9,11-pentaen-3-one] registered a CC50 at 3 days of 15 ± 1 µM. Further, the “TDP2 inhibition (in words)” value on TDP2 is “moderately inhibit TDP2”.
For `CC(=O)c1c(O)c(C)c(O)c2c1OC1=CC(=O)C(C(C)=O)C(=O)C12C` (stereo not shown) [UA, usnic acid], in that order: 20 ± 10 µM and “did not inhibit TDP2”.
